Measurements reported in PubChem BioAssay AID588764 (Broad Institute, 2011).
Records with an inconclusive call do not appear. The source made the active and inactive calls. The rule behind the calls is not given here.

Target: Histone acetyltransferase RTT109 (Candida albicans (strain SC5314 / ATCC MYA-2876)) (UniProt Q5AAJ8)
Experiment: C. albicans Rtt109 HAT inhibition curves – biochemical, cherry-picked hits, plate reader, dose response (AID 588764);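 for activity change, negative = inhibition: 0% = neutral control wells and -100% = no enzyme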
Conditions: Rtt109/Vps75 HAT activity; for activity change, negative = inhibition: at 19.5 µM (top of the series)

Histone acetyltransferase RTT109 (Candida albicans (strain SC5314 / ATCC MYA-2876)), sequence (Q5AAJ8 whole entry, looked up): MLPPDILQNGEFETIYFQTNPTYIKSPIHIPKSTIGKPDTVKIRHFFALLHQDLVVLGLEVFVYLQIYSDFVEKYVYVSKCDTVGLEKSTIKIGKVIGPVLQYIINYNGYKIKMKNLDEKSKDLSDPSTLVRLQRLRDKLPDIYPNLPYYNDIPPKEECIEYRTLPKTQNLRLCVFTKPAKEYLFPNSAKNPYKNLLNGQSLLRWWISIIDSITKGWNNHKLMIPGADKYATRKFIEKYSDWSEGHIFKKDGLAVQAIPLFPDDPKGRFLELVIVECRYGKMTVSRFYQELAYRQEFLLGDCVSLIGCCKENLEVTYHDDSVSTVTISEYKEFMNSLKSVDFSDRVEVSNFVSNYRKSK

SMILES | activity change, negative = inhibition | AC50 [µM]
O=C(NCCCN1CCCC1=O)c1ccc(OC(F)(F)F)cc1 | inactive | 
COc1ccccc1C(=O)NCC(=O)N=Nc1c(O)n(C(C)C)c2ccccc12 | inactive | 
COC(=O)c1c(NC(=O)C2CC(C)=C(C)CC2C(=O)O)sc2c1CCCCC2 (configuration not stated) | inactive | 
O=C(CNC(=O)c1cccc(Br)c1)N/N=C/c1cccs1 | inactive | 
O=S(=O)(Nc1ccc(O)c(Sc2nc3ccccc3s2)c1)c1cccc2ccccc12 | inactive | 
CCCCNS(=O)(=O)c1ccc(NC(=O)Cc2ccccc2[N+](=O)[O-])cc1 | inactive | 
CC(=O)c1cccc(S(=O)(=O)N2CCC(C(=O)O)CC2)c1 | inactive | 
CCOC(=O)c1c(C)oc2c1c(C=NCCO)c(O)c1ccccc12 | inactive | 
CCc1ccc(C(=O)CSc2ncn[nH]2)cc1 |  | 4.11
COc1cccc(/C=C2\SC(=S)N(C(C)C(=O)NC3C=CS(=O)(=O)C3)C2=O)c1 (configuration not stated) | inactive | 
CCN(CC)S(=O)(=O)c1ccc(C(=O)Nc2cc(S(=O)(=O)N3CCOCC3)ccc2N2CCN(C)CC2)cc1 | inactive | 
CC1Sc2ccccc2N(CC(=O)N(C(C)C)C(C)C)C1=O (configuration not stated) | inactive | 
CCN1CCN(C(c2cccnc2)c2cc(Cl)c3cccnc3c2O)CC1 (configuration not stated) |  | 13.9
CC(=O)Nc1ccc(OCc2cccc([N+](=O)[O-])c2)cc1 | inactive | 
Cc1cccc2sc(N(CCCN(C)C)C(=O)CCc3ccccc3)nc12 | inactive | 
CCN(CC)CCCNc1nc2cc(OC)c(OC)cc2c2nc(-c3cccnc3)nn12 | inactive | 
Cc1ccc(C(=O)NCC(=O)NCC(c2ccco2)N2CCCCC2)cc1C (configuration not stated) | inactive | 
COc1ccc(-c2nc(-c3cccs3)no2)cc1 | inactive | 
N=C1c2ccccc2CN1NC(=O)c1ccccc1 | inactive | 
Cc1nn(CC(=O)NCc2cccnc2)c(C)c1[N+](=O)[O-] | inactive | 
O=C1COc2ccc(C(=O)c3ccccc3C(=O)NCc3ccco3)cc2N1 | inactive | 
Cc1ccc2nc(N(CCCN(C)C)C(=O)c3ccc4c(c3)CCCC4)sc2c1 | inactive | 
Cc1nn(S(=O)(=O)c2ccc(C(C)C)cc2)c(C)c1S(=O)(=O)N1CCOCC1 | inactive | 

SMILES | activity change, negative = inhibition | AC50 [µM]
Cc1ccc(/C=C2\SC(=S)N(C(Cc3ccccc3)C(=O)O)C2=O)cc1 (configuration not stated) | inactive | 
CC1(C)OC(=O)N(c2ccccc2)C12C=Cc1cc(Br)ccc1O2 (configuration not stated) | inactive | 
Cc1ccc(/C=C/C(=O)NCc2ccc(S(N)(=O)=O)cc2)o1 |  | 10.7
CCc1ccccc1NC(=O)C1CCN(C(=O)c2ccc([N+](=O)[O-])cc2)CC1 | inactive | 
COc1ccccc1C(=O)CSc1nccn1C | inactive | 
CCOc1ccc(S(=O)(=O)NCCC(=O)Nc2cccc(C(=O)OC)c2)cc1 | inactive | 
O=C(O)c1ccccc1NS(=O)(=O)c1cccc(-n2sc3ccccc3c2=O)c1 |  | 3.49
CC1Cc2ccccc2N1C(=O)c1ccc(N2CCCC2)c([N+](=O)[O-])c1 (configuration not stated) | inactive | 
O=C(O)CSCC(=O)Nc1cc(C(F)(F)F)ccc1Cl | inactive | 
COCCNC(=O)C1=C(N)C(C(=O)Nc2ccc(C)c(S(=O)(=O)N3CCCCC3)c2)SC1=Nc1ccc(C)cc1C (configuration not stated) | inactive | 
CCOc1cc(/C=N/NC(=O)CSc2nncn2C)ccc1OCc1cccc(C)c1 | inactive | 
CCN(CC)CCOc1ccc2c(c1)C(=NNC(=O)c1ccccn1)c1cc(OCCN(CC)CC)ccc1-2 | inactive | 
Cc1cc(C(=O)Nc2ccncc2)c(C)o1 | inactive | 
O=C(CSC1=NC2(CCCCC2)N=C1c1ccccc1)Nc1ccc2c(c1)OCCO2 | inactive | 
Cc1ccc(C#N)c(SCc2nnc(-c3ccc(Cl)cc3)o2)n1 | inactive | 
CC1CCc2c(sc(N)c2C(N)=O)C1 (configuration not stated) |  | 20.5
COC(=O)c1cccc(Oc2cccc(Cl)n2)c1 | inactive | 
C#CCOCCOCCOCCNc1nc(N2CCN(C(=O)C([C@@H](C)O)n3cc([C@@H](N)CCCCN)nn3)CC2)nc(N2CCN(C(=O)[C@H](CCCCN)n3cc(CN)nn3)CC2)n1 (some centres not stated) | inactive | 
CC(C)OC(=O)N(C)c1ccc(C(O)(C(F)(F)F)C(F)(F)F)cc1 | inactive | 
COc1cccc(/C=C2/Sc3ccc(C(=O)NCCN4CCCC4)cc3NC2=O)c1 | inactive | 
O=C(NCc1ccncc1)C(=O)NCC(c1ccco1)N1CCN(c2ccc(F)cc2)CC1 (configuration not stated) | inactive | 
O=C(CNC(=O)c1ccncc1)N/N=C/c1cccc([N+](=O)[O-])c1 | inactive | 
O=C1CCC(=O)N1c1ccc(-c2nc3ccccc3s2)cc1 | inactive | 

SMILES | activity change, negative = inhibition | AC50 [µM]
CCOC(=O)C(C)N1C(=O)S/C(=C/c2ccc3c(c2)n(C)c(=O)n3C)C1=O (configuration not stated) | inactive | 
Clc1nc(NCc2cccnc2)nc(N2CCOCC2)n1 | inactive | 
O=C(CCc1ccc(S(=O)(=O)N2CCOCC2)cc1)N/N=C/c1ccc(O)c(O)c1O |  | 9.29
Cc1ccc(S(=O)(=O)N/N=C\C=C\c2ccccc2)cc1 | inactive | 
CCOC(=O)C1=C(C)NC(=S)N(C(C)=O)C1c1ccc(Cl)cc1 (configuration not stated) | inactive | 
CCc1nnc(NC(=O)CSc2nnc(C3CCCCC3)n2-c2cccc(Cl)c2)s1 | inactive | 
O=C(Cc1ccc(F)cc1)Nc1cccc2cccnc12 | inactive | 
COc1ccc(NC(=O)c2nc3ccccc3s2)cc1 | inactive | 
CC(C(=O)NC1CCS(=O)(=O)C1)N1C(=O)/C(=C/c2ccc(Cl)cc2)SC1=S (configuration not stated) | inactive | 
C1CCC(C(CC2CCCCN2)C2CCCCC2)CC1 (configuration not stated) | inactive | 
Cc1nc2ccccc2n1CC(=O)NC1CCCC1 | inactive | 
O=C1CN(C(=O)/C=C/c2ccc(Cl)cc2)c2ccccc2N1 | inactive | 
CCC(=O)Nc1cc(C)c(OC)c(C)c1 | inactive | 
O=c1c2cc(F)ccc2sn1-c1ccccc1 |  | 1.81
N=c1n(CCN2CCCCC2)c2ccccc2n1CC(O)c1ccc(Cl)c(Cl)c1 (configuration not stated) | inactive | 
O=C(CN1CCCc2ccccc21)NCc1ccc2c(c1)OCO2 | inactive | 
Cc1ccc2c(c1)C1C[N+](C)(CC(=O)c3ccc(Cl)cc3Cl)CCC1N2C(=O)c1ccc(F)cc1 (configuration not stated) |  | 13.4
CN(C)S(=O)(=O)Oc1ccccc1C(=O)Nc1ccccc1Cl | inactive | 
O=C(Nc1ccccc1Cl)/C(Cl)=C(\Cl)S(=O)c1ccccc1 (configuration not stated) |  | 8.62
C#CCOCCOCCOCCNc1nc(N2CCN(C(=O)[C@H](CCCN=C(N)N)n3cc(C(N)[C@@H](C)CC)nn3)CC2)nc(N2CCN(C(=O)[C@H](CCCCN)n3cc([C@@H](N)[C@H](C)CC)nn3)CC2)n1 (some centres not stated) | inactive | 
COCC(=O)OCC(=O)Nc1cc(C)c(C)cc1[N+](=O)[O-] | inactive | 
Cc1ccccc1N1C(S)=C(C#N)C(=O)NC1c1cccs1 (configuration not stated) |  | 17.7
O=c1c2ccccc2[se]n1-c1ccccc1 |  | 1.55

SMILES | activity change, negative = inhibition | AC50 [µM]
O=C(O)C(Cc1ccccc1)N1C(=O)/C(=C/c2ccccc2)SC1=S (configuration not stated) | inactive | 
O=C(NCc1ccc(Cl)cc1)c1ccccc1CCc1ccccc1 | inactive | 
Cc1ccc(S(=O)(=O)CCC(=O)c2cccc([N+](=O)[O-])c2)cc1 |  | 8.29
COc1ccc(N2CCN(C(=O)CNC(=O)Cc3ccccc3)CC2)cc1 | inactive | 
CC(C)(C)C1CCc2c(sc(NC(=O)CSc3nnc(-c4ccccc4)o3)c2C#N)C1 (configuration not stated) | inactive | 
Cc1ccc(NC(=S)Nc2ccc(F)cc2)cc1C | inactive | 
O=S(=O)(NN1CCOCC1)c1ccc(Br)cc1 |  | 11.6
COc1cccc(/C=C2/Sc3ccc(C(=O)NCCCN4CCCC4)cc3NC2=O)c1 | inactive | 
C=CCNc1nnc(SC2CC(=O)N(c3ccc(OC)cc3)C2=O)s1 (configuration not stated) |  | 13.4
Cc1ccc(-n2c(O)c(C=NCc3ccccn3)c3ccccc3c2=O)cc1C | inactive | 
CCOC(=O)c1cc2c(N)c(C(=O)c3cc(C#N)c(SC)nc3C)sc2nc1C | inactive | 
Cn1c(=O)c2c(nc(NC3CCCCC3)n2CC(=O)C23CC4CC(CC(C4)C2)C3)n(C)c1=O | inactive | 
CN(C)C(CNC(=O)c1ccc(C(=O)c2ccccc2)cc1)c1ccccc1 (configuration not stated) | inactive | 
O=C(Nc1nc(-c2nc3ccccc3s2)cs1)c1ccc(S(=O)(=O)N2CCOCC2)cc1 | inactive | 
CCN1/C(=C/c2ccc3cc(C)ccc3[n+]2CC)Sc2cc(C)ccc21 | inactive | 
CCCCOc1ccc(C2C(C(=O)c3ccc(C)o3)=C(O)C(=O)N2Cc2ccco2)cc1 (configuration not stated) | inactive | 
CCOc1ccc(N2C(=O)CC(Sc3ccccc3C(=O)O)C2=O)c([N+](=O)[O-])c1 (configuration not stated) | inactive | 
O=C(C[n+]1cc(-c2ccc(Cl)c(Cl)c2)n2c1CCC2)N1c2ccccc2Sc2ccccc21 | inactive | 
CCOc1ccc(N2C(=O)C(Cl)=C(N3CCOCC3)C2=O)cc1 |  | 20.3
O=c1[nH]c2ccccc2c2oc(CCl)nc12 | inactive | 
Cc1cc(C)c2c(=O)n(CC(=O)N3CCC(N4CCCCC4)CC3)sc2n1 |  | 4.72
CN(c1ccc(C(=O)Nc2ccc3c(c2)OCO3)cc1)S(C)(=O)=O | inactive | 
Fc1ccccc1C1CC(c2ccco2)=Nc2ccccc2S1 (configuration not stated) | inactive | 
